Measured values as given in US20220289691A1, “5-AMINO-SUBSTITUTED PYRAZOLES AND TRIAZOLES AS PEST CONTROL AGENTS” (Bayer Aktiengesellschaft, priority 2019, published 2022).

Tests used:
Diabrotica balteata = Diabrotica balteata spray test; type: in vivo; details: 168 h, beetle larvae on wheat, after 7 days, read-out: efficacy (wheat plant growth); for pest or weed control at 100 g/ha: 100 g/ha (=32 μg/cavity); for pest or weed control at 500 g/ha: 500 g/ha (=160 μg/cavity)
Experimental: Diabrotica balteata—Spray Test Solvent: 78 parts by weight of acetone • • 1.5 parts by weight of dimethylformamide Emulsifier: alkylaryl polyglycol ether
(§1) To produce a suitable active compound formulation, 1 part by weight of active compound is dissolved using the stated parts by weight of solvent and made up with water containing an emulsifier concentration of 1000 ppm until the desired concentration is attained. To produce further test concentrations, the formulation is diluted with emulsifier-containing water.
Pre-swollen wheat grains (Triticum aestivum) are incubated in a multiwell plate filled with agar and a little water for one day (5 seed grains per cavity). The germinated wheat grains are sprayed with an active compound formulation of the desired concentration. Subsequently, each cavity is infected with 10-20 beetle larvae of Diabrotica balteata.
After 7 days, the efficacy in % is determined. 100% means that all wheat plants have grown as in the untreated, uninfected control; 0% means that no wheat plant has grown.

Spodoptera frugiperda = Spodoptera frugiperda spray test; type: in vivo; details: foliar, 168 h, 100 g/ha, maize leaf discs, after 7 days, read-out: efficacy (caterpillars killed)
Experimental: Spodoptera frugiperda—Spray Test Solvent: 78.0 parts by weight of acetone • • 1.5 parts by weight of dimethylformamide Emulsifier: alkylaryl polyglycol ether
as §1
Leaf discs of maize (Zea mays) are sprayed with an active compound formulation of the desired concentration and, after drying, populated with caterpillars of the fall armyworm (Spodoptera frugiperda).
After 7 days, the efficacy in % is determined. 100% means that all the caterpillars have been killed; 0% means that no caterpillar has been killed.

Row | SMILES | pest or weed control at 100 g/ha (Diabrotica balteata) [%] | pest or weed control at 500 g/ha (Diabrotica balteata) [%] | pest or weed control at 100 g/ha (Spodoptera frugiperda) [%]
1 | CCNc1nc(-c2ccc(C=NNC(=S)Nc3ccccc3C(C)C)cc2)nn1-c1ccc(OC(F)(F)F)cc1 [Compound I-050] | 100 | 100 | 100
2 | CC(=O)Nc1nc(-c2ccc(NC(=O)N=C3SCC(=O)N3c3ccccc3C(C)C)cc2)nn1-c1ccc(OC(F)(F)C(F)(F)F)cc1 [Compound I-054] |  | 100 | 100
3 | CC(C)c1ccccc1N1C(=O)CSC1=NC(=O)Nc1ccc(-c2nc(N)n(-c3ccc(OC(F)(F)C(F)(F)F)cc3)n2)cc1 [Compound I-055] | 80 | 100 | 100
4 | CC(C)c1ccccc1N1C(=O)CSC1=NN=Cc1ccc(-c2nc(NC3CC3)n(-c3ccc(OC(F)(F)F)cc3)n2)cc1 [Compound I-058] | 100 | 100 | 100
5 | CC(C)c1ccccc1NC(=S)NN=Cc1ccc(-c2nc(/N=C/N(C)C)n(-c3ccc(OC(F)(F)F)cc3)n2)cc1 [Compound I-061] | 80 | 80 | 100
6 | CNc1nc(-c2ccc(C=NN=C3SCC(=O)N3c3ccccc3C(C)C)cc2)nn1-c1ccc(OC(F)(F)C(F)(F)F)cc1 [Compound I-064] | 100 | 100 | 100
7 | CC(C)c1ccccc1N1C(=O)CSC1=NN=Cc1ccc(-c2nc(N)n(-c3ccc(OC(F)(F)C(F)(F)F)cc3)n2)cc1 [Compound I-065] | 100 | 100 | 100
8 | CC(C)c1ccccc1NC(=S)NN=Cc1ccc(-c2nc(N)n(-c3ccc(OC(F)(F)C(F)(F)F)cc3)n2)cc1 [Compound I-066] | 100 | 100 | 100
9 | CNc1nc(-c2ccc(C=NNC(=S)Nc3ccccc3C(C)C)cc2)nn1-c1ccc(OC(F)(F)C(F)(F)F)cc1 [Compound I-067] | 100 | 100 | 100
10 | CC(C)c1ccccc1NC(=S)NN=Cc1ccc(-c2nc(NC3CCOC3)n(-c3ccc(OC(F)(F)F)cc3)n2)cc1 (centres unmarked) [Compound I-068] | 100 | 100 | 100
11 | CNc1nc(-c2ccc(C=NNC(=S)Nc3cc(C)ccc3C(C)C)cc2)nn1-c1ccc(OC(F)(F)F)cc1 [Compound I-070] | 100 |  | 100
12 | C=CCNc1nc(-c2ccc(C=NNC(=S)Nc3ccccc3C(C)C)cc2)nn1-c1ccc(OC(F)(F)F)cc1 [Compound I-071] | 100 |  | 100
13 | COCCNc1nc(-c2ccc(C=NNC(=S)Nc3ccccc3C(C)C)cc2)nn1-c1ccc(OC(F)(F)F)cc1 [Compound I-072] | 100 |  | 100
14 | COCCCNc1nc(-c2ccc(C=NNC(=S)Nc3ccccc3C(C)C)cc2)nn1-c1ccc(OC(F)(F)F)cc1 [Compound I-073] | 100 |  | 100
15 | COCCNc1nc(-c2ccc(NC(=O)N=C3SCC(=O)N3c3ccccc3C(C)C)cc2)nn1-c1ccc(OC(F)(F)F)cc1 [Compound I-080] | 100 |  | 100
16 | COC(CCNc1nc(-c2ccc(C=NNC(=S)Nc3ccccc3C(C)C)cc2)nn1-c1ccc(OC(F)(F)F)cc1)OC [Compound I-082] | 100 |  | 100
17 | CNc1nc(-c2ccc(C=NNC(=S)Nc3cc(OC)ccc3C(C)C)cc2)nn1-c1ccc(OC(F)(F)F)cc1 [Compound I-084] | 100 |  | 100
18 | CCOC(CNc1nc(-c2ccc(C=NN=C3SCC(=O)N3c3ccccc3C(C)C)cc2)nn1-c1ccc(OC(F)(F)F)cc1)OCC [Compound I-085] | 80 |  | 100
19 | C=CCNc1nc(-c2ccc(NC(=O)N=C3SCC(=O)N3c3ccccc3C(C)C)cc2)nn1-c1ccc(OC(F)(F)F)cc1 [Compound I-086] | 100 |  | 100
